Data taken from US8637525B2, “Compounds for the reduction of beta-amyloid production” (Bristol-Myers Squibb Company, priority 2009, dated 2014).
pIC50: −log10 of the molar value. Read-outs that look alike come from different tables or passages of the source.

Test system: Aβ1-42 production
Assay: Cellular assay for inhibition of Aβ1-42 production (H4 APP751 SWE clone 8.20)
Type: cell-based
Details: H4 APP751 SWE clone 8.20 cells, 19 h incubation
Procedure, shortened: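 Inhibition values are IC50s fitted to Viewlux counts after a 19 h compound exposure at 37 °C. Aβ42 was captured by the neoepitope-specific antibody 565 (0.8 ng/well) paired with N-terminal 26D6 (75 ng/well), incubated overnight at 4 °C in pH 7.4 Tris-HCl buffer containing 0.2% BSA.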

[1] = 19 h, class symbols, read-out: Activity Rating (Aβ42 cellular IC50)
[2] = read-out: Activity Rating (Aβ42 cellular IC50), numeric value
[3] = 19 h, read-out: Activity Rating (Aβ42 cellular IC50), numeric value
[4] = class symbols, read-out: Activity Rating (Aβ42 cellular IC50)

| pIC50 [1] | SMILES | also measured |
| --- | --- | --- |
| 6.00 to 7.00 | CNc1nc(Nc2ccc(C3(C#N)CC3)cc2)nc2c1CCC2c1ccccc1 (centres unmarked) [Example 247, 1-(4-(4-(methylamino)-7-phenyl-6,7-dihydro-5H-cyclopenta[d]pyrimidin-2-ylamino)phenyl)cyclopropanecarbonitrile] |  |
| 7.00 to 8.00 | COc1cc(Nc2nc3c(c(N4C[C@@H]5C[C@H]4CO5)n2)CCC3c2ccc(F)cc2)ccc1-n1cnc(Cl)c1 (single isomer, unassigned) [Example 18B] |  |
| 7.00 to 8.00 | CCOCCCNc1nc(Nc2ccc(-n3cnc(Cl)c3)c(OC)c2)nc2c1CCC2c1ccc(F)cc1 (centres unmarked) [Example 42, N2-(4-(4-chloro-1H-imidazol-1-yl)-3-methoxyphenyl)-N4-(3-ethoxypropyl)-7-(4-fluorophenyl)-6,7-dihydro-5H-cyclopenta[d]pyrimidine-2,4-diamine] |  |
| 7.00 to 8.00 | COc1cc(Nc2nc3c(c(N4CC(F)(F)C4)n2)CCC3c2ccc(OC(F)(F)F)cc2)ccc1-n1cnc(Cl)c1 (single isomer, unassigned) [Example 99A, N-(4-(4-chloro-1H-imidazol-1-yl)-3-methoxyphenyl)-4-(3,3-difluoroazetidin-1-yl)-7-(4-(trifluoromethoxy)phenyl)-6,7-dihydro-5H-cyclopenta[d]pyrimidin-2-amine] |  |
| 7.00 to 8.00 | COc1cc(Nc2nc3c(c(N4C[C@@H](C)O[C@@H](C)C4)n2)CCC3c2ccc(F)cc2)ccc1-n1cnc(Cl)c1 (some centres unmarked) [Example 21] |  |
| 7.00 to 8.00 | CCNc1nc(Nc2ccc(-n3cnc(C)n3)c(OC)c2)nc2c1COCC2c1ccc(F)cc1 (centres unmarked) [Example 55B, N4-ethyl-8-(4-fluorophenyl)-N2-(3-methoxy-4-(3-methyl-1H-1,2,4-triazol-1-yl)phenyl)-7,8-dihydro-5H-pyrano[4,3-d]pyrimidine-2,4-diamine] |  |
|  | COc1cc(Nc2nc3c(c(N4CC(C)(OC)C4)n2)CCC3c2ccc(F)cc2)ccc1-n1cnc(C)n1 (centres unmarked) [Example 192A, 7-(4-fluorophenyl)-4-(3-methoxy-3-methylazetidin-1-yl)-N-(3-methoxy-4-(3-methyl-1H-1,2,4-triazol-1-yl)phenyl)-6,7-dihydro-5H-cyclopenta[d]pyrimidin-2-amine] | pIC50 [2]: 6.77 |
| 8.00 to 8.82 | CNc1nc(Nc2ccc(-n3cnc(Cl)c3)c(OC)c2)nc2c1CCC2c1ccc(OC(F)(F)F)cc1 (racemic) [Example 97, N^2-(4-(4-Chloro-1H-imidazol-1-yl)-3-methoxyphenyl)-N^4-methyl-7-(4-(trifluoromethoxy)phenyl)-6,7-dihydro-5H-cyclopenta[d]pyrimidine-2,4-diamine] |  |
|  | COc1cc(Nc2nc3c(c(N4CCC(F)C4)n2)COCC3c2ccc(F)cc2)ccc1-n1cnc(Cl)c1 (stereo in doubt) [Example 57A, N-(4-(4-chloro-1H-imidazol-1-yl)-3-methoxyphenyl)-8-(4-fluorophenyl)-4-((R)-3-fluoropyrrolidin-1-yl)-7,8-dihydro-5H-pyrano[4,3-d]pyrimidin-2-amine] | pIC50 [3]: 7.85 |
| 8.00 to 8.82 | COc1cc(Nc2nc(NC3CC3)c3c(n2)C(c2ccccc2)CC3)ccc1-n1cnc(Cl)c1 (centres unmarked) [Example 8, N2-(4-(4-chloro-1H-imidazol-1-yl)-3-methoxyphenyl)-N4-cyclopropyl-7-phenyl-6,7-dihydro-5H-cyclopenta[d]pyrimidine-2,4-diamine] |  |
| 7.00 to 8.00 | CCNc1nc(Nc2ccc(-n3ncnc3C)c(F)c2)nc2c1COC2c1ccc(F)cc1 (single isomer, unassigned) [Example 78B, N^4-ethyl-N^2-(3-fluoro-4-(5-methyl-1H-1,2,4-triazol-1-yl)phenyl)-7-(4-fluorophenyl)-5,7-dihydrofuro[3,4-d]pyrimidine-2,4-diamine] |  |
| 8.00 to 8.82 | CNc1nc(Nc2ccc(-n3cnc(C)n3)c(OC)c2)nc2c1CC[C@H]2c1ccccc1Cl (single isomer, unassigned) [Example 268A] |  |
| 7.00 to 8.00 | COc1cc(Nc2nc3c(c(N4CC[C@H](F)C4)n2)CCC3c2ccc(F)cc2)ccc1-n1cnc(Cl)c1 (single isomer, unassigned) [Example 36] |  |
| 7.00 to 8.00 | Cc1ncnn1-c1ccc(Nc2nc3c(c(N(C)C)n2)COCC3c2ccc(Cl)cc2)cc1F (single isomer, unassigned) [Example 67A, 8-(4-chlorophenyl)-N^2-(3-fluoro-4-(5-methyl-1H-1,2,4-triazol-1-yl)phenyl)-N^4,N^4-dimethyl-7,8-dihydro-5H-pyrano[4,3-d]pyrimidine-2,4-diamine] |  |
|  | COc1cc(Nc2nc3c(c(N4CC5(CCCO5)C4)n2)CCC3c2ccccc2)ccc1-n1cnc(Cl)c1 (centres unmarked) [Example 188, N-(4-(4-chloro-1H-imidazol-1-yl)-3-methoxyphenyl)-7-phenyl-4-(5-oxa-2-azaspiro[3.4]octan-2-yl)-6,7-dihydro-5H-cyclopenta[d]pyrimidin-2-amine] | pIC50 [3]: 7.72 |
|  | CNc1nc(Nc2ccc(-n3cnc(C)n3)c(OC)c2)nc2c1CN(C)CC2c1ccc(F)cc1 (single isomer, unassigned) [Example 198A, 8-(4-fluorophenyl)-N2-(3-methoxy-4-(3-methyl-1H-1,2,4-triazol-1-yl)phenyl)-N4,6-dimethyl-5,6,7,8-tetrahydropyrido[4,3-d]pyrimidine-2,4-diamine] | pIC50 [4]: 6.00 to 7.00 |
| 7.00 to 8.00 | CCNc1nc(Nc2ccc(-n3cnc(C)n3)c(F)c2)nc2c1CN(S(C)(=O)=O)CC2c1ccccc1 (centres unmarked) [Example 139, N4-ethyl-N2-(3-fluoro-4-(3-methyl-1H-1,2,4-triazol-1-yl)phenyl)-6-(methylsulfonyl)-8-phenyl-5,6,7,8-tetrahydropyrido[4,3-d]pyrimidine-2,4-diamine] |  |
| < 6.00 | CNc1nc(Nc2ccccc2C#N)nc2c1CCC2c1ccccc1 (centres unmarked) [Example 228, 2-(4-(methylamino)-7-phenyl-6,7-dihydro-5H-cyclopenta[d]pyrimidin-2-ylamino)benzonitrile] |  |
| 7.00 to 8.00 | CNc1nc(Nc2ccc(-n3cnc(C)n3)c(OC)c2)nc2c1CC[C@@H]2c1cccc(OC)c1 [Example 272B, (R)—N2-(3-methoxy-4-(3-methyl-1H-1,2,4-triazol-1-yl)phenyl)-7-(3-methoxyphenyl)-N4-methyl-6,7-dihydro-5H-cyclopenta[d]pyrimidine-2,4-diamine] |  |
| 8.00 to 8.82 | CNc1nc(Nc2ccc(-n3cnc(Cl)c3)c(OC)c2)nc2c1CCC2c1ccc(F)c(F)c1 (single isomer, unassigned) [Example 96A, N^2-(4-(4-chloro-1H-imidazol-1-yl)-3-methoxyphenyl)-7-(3,4-difluorophenyl)-N^4-methyl-6,7-dihydro-5H-cyclopenta[d]pyrimidine-2,4-diamine] |  |
|  | CCN(C)c1nc(Nc2ccc(-n3cnc(Cl)c3)c(OC)c2)nc2c1COCC2c1ccccc1 (single isomer, unassigned) [Example 52A, N^2-(4-(4-Chloro-1H-imidazol-1-yl)-3-methoxyphenyl)-N^4-ethyl-N^4-methyl-8-phenyl-7,8-dihydro-5H-pyrano[4,3-d]pyrimidine-2,4-diamine] | pIC50 [4]: 8.00 to 8.82 |
|  | COc1cc(Nc2nc3c(c(N4CC[C@@H](F)C4)n2)CCC3c2ccc(F)cc2)ccc1-n1cnc(Cl)c1 (stereo partly drawn) [Example 38B, N-(4-(4-chloro-1H-imidazol-1-yl)-3-methoxyphenyl)-7-(4-fluorophenyl)-4-((R)-3-fluoropyrrolidin-1-yl)-6,7-dihydro-5H-cyclopenta[d]pyrimidin-2-amine] | pIC50 [4]: 7.00 to 8.00 |
|  | COc1cc(Nc2nc(Nc3cc(C(C)C)ccc3C)c3c(n2)C(c2ccccc2)CC3)ccc1-n1cnc(Cl)c1 (centres unmarked) [Example 214, N2-(4-(4-chloro-1H-imidazol-1-yl)-3-methoxyphenyl)-N4-(5-isopropyl-2-methylphenyl)-7-phenyl-6,7-dihydro-5H-cyclopenta[d]pyrimidine-2,4-diamine] | pIC50 [3]: 7.11 |
|  | CCNc1nc(Nc2ccc(-n3cnc(C)n3)c(F)c2)nc2c1CN(CC(F)F)CC2c1ccccc1 (centres unmarked) [Example 195A, 6-(2,2-difluoroethyl)-N4-ethyl-N2-(3-fluoro-4-(3-methyl-1H-1,2,4-triazol-1-yl)phenyl)-8-phenyl-5,6,7,8-tetrahydropyrido[4,3-d]pyrimidine-2,4-diamine] | pIC50 [2]: 7.59 |
| 8.00 to 8.82 | CNc1nc(Nc2ccc(-n3cnc(C)c3)c(OC)c2)nc2c1COCC2c1ccc(Cl)cc1 (centres unmarked) [Example 70, 8-(4-chlorophenyl)-N^2-(3-methoxy-4-(4-methyl-1H-imidazol-1-yl)phenyl)-N^4-methyl-7,8-dihydro-5H-pyrano[4,3-d]pyrimidine-2,4-diamine] |  |
| < 6.00 | CNc1nc(Nc2ccc(C(C)(C)C)cc2)nc2c1CCC2c1ccccc1 (centres unmarked) [Example 234, N2-(4-tert-butylphenyl)-N4-methyl-7-phenyl-6,7-dihydro-5H-cyclopenta[d]pyrimidine-2,4-diamine] |  |
| 8.00 to 8.82 | COc1cc(Nc2nc3c(c(N4CCC(F)C4)n2)COCC3c2ccc(F)cc2)ccc1-n1cnc(Cl)c1 (stereo in doubt) [Example 58A, N-(4-(4-chloro-1H-imidazol-1-yl)-3-methoxyphenyl)-8-(4-fluorophenyl)-4-((S)-3-fluoropyrrolidin-1-yl)-7,8-dihydro-5H-pyrano[4,3-d]pyrimidin-2-amine] |  |
|  | CCNc1nc(Nc2ccc(-n3cnc(Cl)c3)c(OC)c2)nc2c1CN(C(=O)OC)CC2c1ccccc1 (centres unmarked) [Example 131, Methyl 2-(4-(4-chloro-1H-imidazol-1-yl)-3-methoxyphenylamino)-4-(ethylamino)-8-phenyl-7,8-dihydropyrido[4,3-d]pyrimidine-6(5H)-carboxylate] | pIC50 [4]: 7.00 to 8.00 |
| 6.00 to 7.00 | CCN(C)c1nc(Nc2ccc(-n3cnc(Cl)c3)c(OC)c2)nc2c1CCNC2c1ccc(F)cc1 (centres unmarked) [Example 166, N2-(4-(4-chloro-1H-imidazol-1-yl)-3-methoxyphenyl)-N4-ethyl-8-(4-fluorophenyl)-N4-methyl-5,6,7,8-tetrahydropyrido[3,4-d]pyrimidine-2,4-diamine] |  |
